# US9839642B2, “Beta-tetrazolyl-propionic acids as metallo-beta-lactamase inhibitors” (priority 2014, dated 2017)
# Where two headings read alike, the source gives them in different places.
# What was measured:
# IMP-1 = IMP-1 (Serratia marcescens, UniProt P52699); assay: Enzyme activity: determination of IC50, fluorescence assay with CCF2-FA substrate; assay type: biochemical; settings: enzyme 2 pM, CCF2-FA 1.25 μM, 2 hours at 25° C.; read-out: IMP1 IC50
# Method in brief: (§1)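 Read-out: fluorescence, ex 405 nm / em 460 nm, after 2 h at 25° C with 1.25 μM CCF2-FA. Buffer 100 mM KH2PO4 pH 7, 0.005% Tween-20, 10 μM ZnSO4; enzyme 1 pM NDM-1, 2 pM IMP-1, 30 pM VIM-1. IC50 by 4-parameter fit.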
# NDM-1 = NDM-1 (Klebsiella pneumoniae, UniProt C7C422); assay: as above; assay type: biochemical; settings: CCF2-FA 1.25 μM, 2 hours at 25° C.
# Chain of NDM-1 (C7C422 29-270, looked up, species assumed): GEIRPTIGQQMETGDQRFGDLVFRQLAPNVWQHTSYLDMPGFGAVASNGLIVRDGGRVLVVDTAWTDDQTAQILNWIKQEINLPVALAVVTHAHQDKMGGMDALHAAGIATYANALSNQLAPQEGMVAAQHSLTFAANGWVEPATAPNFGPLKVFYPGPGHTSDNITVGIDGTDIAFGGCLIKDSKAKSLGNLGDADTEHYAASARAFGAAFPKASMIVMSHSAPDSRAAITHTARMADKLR
# Method in brief: as §1
# VIM-1 = VIM-1 (Pseudomonas aeruginosa, UniProt A0A0F7KYQ8); assay: as above; assay type: biochemical; settings: enzyme 30 pM, CCF2-FA 1.25 μM, 2 hours at 25° C.; read-out: VIM1 IC50
# Method in brief: as §1
# [1] = test system: Escherichia coli expressing NDM-1 (CLB30016); assay: Antibiotic potentiation activity: synergistic concentration (MITC95) with imipenem, growth by OD600; assay type: cell-based; settings: 95% inhibition of bacterial growth, strain CLB30016
# Method in brief: (§2)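 Strains grown overnight at 35° C, resuspended in saline, diluted 1:100 into 1.1×CAMHB; imipenem at 1 μg/ml or 4 μg/ml with test compound 200 μM to 0.195 μM. Incubated 22 hours to 24 hours at 35° C, OD600 read; MITC95 is lowest compound concentration inhibiting 95% of growth.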
# [2] = test system: Klebsiella pneumoniae expressing VIM-1 (IHMA599644); assay: as above; assay type: cell-based; settings: 95% inhibition of bacterial growth, strain IHMA599644
# Method in brief: as §2
# [3] = test system: Serratia marcescens expressing IMP-1 (CL5741); assay: as above; assay type: cell-based; settings: 95% inhibition of bacterial growth, strain CL5741
# Method in brief: as §2
# [4] = enzyme 1 pM, read-out: NDM1 IC50
# Chain of IMP-1 (P52699 19-246, looked up, species assumed): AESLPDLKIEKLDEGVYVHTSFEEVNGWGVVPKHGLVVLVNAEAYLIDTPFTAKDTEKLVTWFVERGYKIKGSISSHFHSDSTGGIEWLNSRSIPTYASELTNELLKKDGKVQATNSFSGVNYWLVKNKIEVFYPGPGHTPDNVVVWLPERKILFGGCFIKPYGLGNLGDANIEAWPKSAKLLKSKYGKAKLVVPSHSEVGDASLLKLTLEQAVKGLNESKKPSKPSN
Structure (SMILES),IC50 (IMP-1),IC50 (NDM-1; [4]),IC50 (VIM-1),NDM1 EC30016 MITC95 [1],VIM1 KP599644 MITC95 [2],IMP1 SM5741 MITC95 [3],"IC50 (NDM-1; NDM1 IC50, enzyme 1 pM)"
"CCC[C@H](C(=O)O)[C@H](Cc1csc(N)n1)c1nnn[nH]1 [Example 150, 4-((2S,3S)-3-carboxy-2-(1H-tetrazol-5-yl)hexyl)thiazol-2-aminium]",> 20000 nM,480 nM,300 nM,1.6 µM,25 µM,>200 µM,–
CCC[C@H](C(=O)O)[C@H](Cc1ccc(NC)cn1)c1nnn[nH]1 [Example 151],7900 nM,300 nM,120 nM,0.39 µM,12.5 µM,100 µM,–
"CNc1ccc(C[C@H](c2nnn[nH]2)[C@@H](C(=O)O)C(C)C)cn1 [Example 152, (2S,3S)-2-isopropyl-4-(6-(methylamino)pyridin-3-yl)-3-(1H-tetrazol-5-yl)butanoic acid]",5300 nM,62 nM,29 nM,0.39 µM,6.2 µM,38 µM,–
"CCC[C@H](C(=O)O)[C@H](Cc1ccc(C(F)(F)F)cc1)c1nnn[nH]1 [Example 153, (S)-2-((S)-1-(1H-tetrazol-5-yl)-2-(4-(trifluoromethyl)phenyl)ethyl)pentanoic acid]",510 nM,58 nM,2.1 nM,9.4 µM,25 µM,25 µM,–
"CCC[C@H](C(=O)O)[C@H](Cc1ccccn1)c1nn[nH]n1 [Example 154, (S)-2-((S)-2-(pyridin-2-yl)-1-(1H-tetrazol-5-yl)ethyl)pentanoic acid]",13000 nM,430 nM,140 nM,0.78 µM,25 µM,100 µM,–
"CCC[C@H](C(=O)O)[C@H](Cc1cccc2sc(N)nc12)c1nn[nH]n1 [Example 155, (S)-2-((S)-2-(2-aminobenzo[d]thiazol-4-yl)-1-(2H-tetrazol-5-yl)ethyl)pentanoic acid]",290 nM,12 nM,7.3 nM,16 µM,18.8 µM,18.8 µM,–
"CCC[C@H](C(=O)O)[C@H](Cc1cnn2ncccc12)c1nnn[nH]1 [Example 156, (S)-2-((S)-2-(pyrazolo[1,5-b]pyridazin-3-yl)-1-(1H-tetrazol-5-yl)ethyl)pentanoic acid]",5400 nM,150 nM,1.5 nM,31 µM,25 µM,>200 µM,–
"CCC[C@H](C(=O)O)[C@H](Cc1ccc(O)nc1)c1nnn[nH]1 [Example 157, (S)-2-((S)-2-(6-hydroxypyridin-3-yl)-1-(1H-tetrazol-5-yl)ethyl)pentanoic acid]",12000 nM,730 nM,8.5 nM,18.8 µM,25 µM,>200 µM,–
"CCC[C@H](C(=O)O)[C@H](Cc1ccc(-c2ccc(C3(O)CNC3)cc2)nc1)c1nnn[nH]1 [Example 159, (2S)-2-[(1S)-2-{6-[4-(3-hydroxyazetidin-3-yl)phenyl]pyridin-3-yl}-1-(1H-tetrazol-5-yl)ethyl]pentanoic acid]",3700 nM,400 nM,23 nM,12.5 µM,50 µM,75 µM,–
"CCC[C@H](C(=O)O)[C@H](Cc1ccc(-c2cnc(NC(C)=O)nc2)nc1)c1nn[nH]n1 [Example 160, (2S)-2-[(1S)-2-{6-[2-(acetylamino)pyrimidin-5-yl]pyridin-3-yl}-1-(1H-tetrazol-5-yl)ethyl]pentanoic acid]",1600 nM,50 nM,5.7 nM,38 µM,75 µM,50 µM,–
"CCC[C@H](C(=O)O)[C@H](Cc1ccc(-c2cnc(N)nc2)nc1)c1nnn[nH]1 [Example 161, (2S)-2-[(1S)-2-[6-(2-aminopyrimidin-5-yl)pyridin-3-yl]-1-(1H-tetrazol-5-yl)ethyl]pentanoic acid]",1100 nM,30 nM,3.3 nM,18.8 µM,50 µM,18.8 µM,–
"CCC[C@H](C(=O)O)[C@H](Cc1ccc(-c2ccc3ccnc(C#N)c3c2)nc1)c1nnn[nH]1 [Example 162, (2S)-2-[(1S)-2-[6-(1-cyanoisoquinolin-7-yl)pyridin-3-yl]-1-(1H-tetrazol-5-yl)ethyl]pentanoic acid]",560 nM,22 nM,3.7 nM,75 µM,125 µM,12.5 µM,–
"CCC[C@H](C(=O)O)[C@H](Cc1ccc(-c2cnc(N(C)C)nc2)nc1)c1nnn[nH]1 [Example 163, (2S)-2-[(1S)-2-{6-[2-(dimethylamino)pyrimidin-5-yl]pyridin-3-yl}-1-(1H-tetrazol-5-yl)ethyl]pentanoic acid]",600 nM,25 nM,3.8 nM,38 µM,125 µM,16 µM,–
"CCC[C@H](C(=O)O)[C@H](Cc1ccc(C2=CCNC2)nc1)c1nnn[nH]1 [Example 164, (2S)-2-[(1S)-2-[6-(2,5-dihydro-1H-pyrrol-3-yl)pyridin-3-yl]-1-(1H-tetrazol-5-yl)ethyl]pentanoic acid]",13000 nM,530 nM,3.9 nM,9.4 µM,18.8 µM,50 µM,–
"CCC[C@H](C(=O)O)[C@H](Cc1ccc(C2=CCNCC2)cn1)c1nnn[nH]1 [Example 165, (2S)-2-[(1S)-2-(1′,2′,3′,6′-tetrahydro-3,4′-bipyridin-6-yl)-1-(1H-tetrazol-5-yl)ethyl]pentanoic acid]",> 20000 nM,–,68 nM,3.1 µM,25 µM,150 µM,1500 nM
"CCC[C@H](C(=O)O)[C@H](Cc1ccc(-c2ccc(C3(O)CNC3)cc2)cn1)c1nnn[nH]1 [Example 166, (2S)-2-[(1S)-2-{5-[4-(3-hydroxyazetidin-3-yl)phenyl]pyridin-2-yl}-1-(1H-tetrazol-5-yl)ethyl]pentanoic acid]",9300 nM,500 nM,170 nM,9.4 µM,38 µM,100 µM,–
"CCC[C@H](C(=O)O)[C@H](Cc1ccc(-c2ccc(N)nc2)cn1)c1nnn[nH]1 [Example 167, (2S)-2-[(1S)-2-(6′-amino-3,3′-bipyridin-6-yl)-1-(1H-tetrazol-5-yl)ethyl]pentanoic acid]",5700 nM,200 nM,140 nM,9.4 µM,100 µM,>200 µM,–
"CCC[C@H](C(=O)O)[C@H](Cc1ccc(-c2ccc3[nH]ncc3c2)cn1)c1nnn[nH]1 [Example 168, (2S)-2-[(1S)-2-[5-(1H-indazol-5-yl)pyridin-2-yl]-1-(1H-tetrazol-5-yl)ethyl]pentanoic acid]",3000 nM,100 nM,53 nM,25 µM,>200 µM,200 µM,–
